IC50 data for 26 molecules are collected here from patent US20210261512A1, “NOVEL COMPOUNDS” (INFLAZOME LIMITED, priority 2018, published 2021).

One may read the IC50 as the concentration that inhibits the measured activity by half. Lower therefore signals higher potency.

Bounds are passed on as bounds.

The test has as its target NLRP3 (Homo sapiens, UniProt Q96P20). Briefly: THP-1 cells pyroptosis assay. The test is classed as cell-based. Details: Seed THP-1 cells (25,000 cells/well) containing 1.0 μg/ml LPS; host or cells: THP-1. The conditions noted are these: LPS 1.0 μg/ml, nigericin 5 μM, resazurin readout, 10 μM top dose (Example 2: top dose of 30 μM). Here is the method:
THP-1 cells (ATCC #TIB-202) were grown in RPMI containing L-glutamine (Gibco #11835) supplemented with imM sodium pyruvate (Sigma #S8636) and penicillin (100 units/ml)/streptomycin (0.1 mg/ml) (Sigma #P4333) in 10% Fetal Bovine Serum (FBS) (Sigma #F0804). The cells were routinely passaged and grown to confluency (˜10^6 cells/ml). On the day of the experiment, THP-1 cells were harvested and resuspended into RPMI medium (without FBS). The cells were then counted and viability (>90%) checked by Trypan blue (Sigma #T8154). Appropriate dilutions were made to give a concentration of 625,000 cells/ml. To this diluted cell solution was added LPS (Sigma #L4524) to give a 1 μg/ml Final Assay Concentration (FAC). 40 μl of the final preparation was aliquoted into each well of a 96-well plate. The plate thus prepared was used for compound screening.
The following method step-by-step assay was followed for compound screening. • 1. Seed THP-1 cells (25,000 cells/well) containing 1.0 μg/ml LPS in 40 μl of RPMI medium (without FBS) in 96-well, black walled, clear bottom cell culture plates coated with poly-D-lysine (VWR #734-0317) • 2. Add 5 μl compound (8 points four-fold dilution or 8 points half-log dilution, with 10 μM top dose, unless stated otherwise) or vehicle (DMSO 0.1% FAC) to the appropriate wells • 3. Incubate for 3 hrs at 37° C. and 5% CO2 • 4. Add 5 μl nigericin (Sigma #N7143) (FAC 5 μM) to all wells • 5. Incubate for 1 hr at 37° C. and 5% CO2 • 6. At the end of the incubation period, spin plates at 300×g for 3 mins and remove supernatant • 7. Then add 50 μl of resazurin (Sigma #R^7017) (FAC 100 μM resazurin in RPMI medium without FBS) and incubate plates for a further 1-2 hrs at 37° C. and 5% CO2 • 8. Plates were read in an Envision reader at Ex 560 nm and Em 590 nm • 9. IC50 data is fitted to a non-linear regression equation (log inhibitor vs response-variable slope 4-parameters)

Sequence of NLRP3 (Q96P20 whole entry): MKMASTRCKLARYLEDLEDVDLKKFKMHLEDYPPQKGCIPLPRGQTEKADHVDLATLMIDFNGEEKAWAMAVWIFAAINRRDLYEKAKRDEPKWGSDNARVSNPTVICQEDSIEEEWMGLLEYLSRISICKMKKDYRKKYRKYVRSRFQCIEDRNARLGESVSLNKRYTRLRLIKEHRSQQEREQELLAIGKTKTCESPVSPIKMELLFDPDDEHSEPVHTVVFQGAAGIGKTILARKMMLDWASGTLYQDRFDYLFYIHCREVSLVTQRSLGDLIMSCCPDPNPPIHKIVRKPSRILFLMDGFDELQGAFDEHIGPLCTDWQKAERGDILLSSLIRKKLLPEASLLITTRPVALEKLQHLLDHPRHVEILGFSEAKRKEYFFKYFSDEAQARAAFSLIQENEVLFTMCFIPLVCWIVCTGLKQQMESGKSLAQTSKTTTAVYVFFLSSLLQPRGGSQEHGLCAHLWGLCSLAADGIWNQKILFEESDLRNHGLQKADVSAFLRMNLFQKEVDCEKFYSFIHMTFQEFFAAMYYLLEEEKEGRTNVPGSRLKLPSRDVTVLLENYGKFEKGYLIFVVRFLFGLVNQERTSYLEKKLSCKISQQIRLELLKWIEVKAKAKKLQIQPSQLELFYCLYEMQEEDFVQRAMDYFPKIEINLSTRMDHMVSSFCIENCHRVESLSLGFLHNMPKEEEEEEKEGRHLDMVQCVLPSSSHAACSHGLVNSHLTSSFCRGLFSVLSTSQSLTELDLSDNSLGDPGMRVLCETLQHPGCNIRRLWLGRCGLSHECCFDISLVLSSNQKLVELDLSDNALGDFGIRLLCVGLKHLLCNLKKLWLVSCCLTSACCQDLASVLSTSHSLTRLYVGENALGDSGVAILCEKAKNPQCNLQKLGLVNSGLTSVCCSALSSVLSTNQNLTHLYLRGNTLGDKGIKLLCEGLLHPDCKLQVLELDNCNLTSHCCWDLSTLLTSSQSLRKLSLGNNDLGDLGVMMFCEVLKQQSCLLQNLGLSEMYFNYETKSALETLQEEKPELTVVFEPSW

As to `Cc1cc2c(c(Nc3nnc(S(=O)(=O)N4CCC(N(C)C)CC4)[nH]3)c1-c1ccnc(OC3CCN(C)CC3)c1)CCC2` [Example 316, N,N-dimethyl-1-((5-((6-methyl-5-(2-((1-methylpiperidin-4-yl)oxy)pyridin-4-yl)-2,3-dihydro-1H-inden-4-yl)amino)-4H-1,2,4-triazol-3-yl)sulfonyl)piperidin-4-amine], the IC50 was no more than 5 µM.
`Cc1ccc(S(=O)(=O)c2nnc(Nc3c4c(cc5c3CCC5)CCC4)[nH]2)cc1` [Example 182, N-(1,2,3,5,6,7-hexahydro-s-indacen-4-yl)-5-tosyl-4H-1,2,4-triazol-3-amine] came in with an IC50 of no more than 5 µM.
`O=S(=O)(c1cncnc1)c1n[nH]c(Nc2c3c(cc4c2CCC4)CCC3)n1` [Example 169, N-(1,2,3,5,6,7-hexahydro-s-indacen-4-yl)-3-(pyrimidin-5-ylsulfonyl)-1H-1,2,4-triazol-5-amine]: the IC50 is no more than 10 µM.
For the molecule `CN1CCN(CCCS(=O)(=O)c2nnc(Nc3c4c(cc5c3CCC5)CCC4)[nH]2)CC1` [Example 51, N-(1,2,3,5,6,7-hexahydro-s-indacen-4-yl)-5-((3-(4-methylpiperazin-1-yl)propyl)sulfonyl)-4H-1,2,4-triazol-3-amine], the concentration for half-maximal inhibition (IC50) is no more than 5 µM.
`CS(=O)(=O)c1nnc(Nc2c(-c3ccnc(Oc4ccccc4)c3)ccc3c2CCC3)[nH]1` [Example 340, 5-(methylsulfonyl)-N-(5-(2-phenoxypyridin-4-yl)-2,3-dihydro-1H-inden-4-yl)-4H-1,2,4-triazol-3-amine] registered an IC50 of no more than 5 µM.
With `CC(C)(O)Cn1cc(S(=O)(=O)c2nnc(Nc3c4c(cc5c3CCC5)CCC4)[nH]2)cn1` [Example 336, 1-(4-((5-((1,2,3,5,6,7-hexahydro-s-indacen-4-yl)amino)-4H-1,2,4-triazol-3-yl)sulfonyl)-1H-pyrazol-1-yl)-2-methylpropan-2-ol], the half-inhibitory concentration (IC50) is no more than 5 µM.
The molecule `O=S(=O)(c1nnc(Nc2c3c(cc4c2CCC4)CCC3)[nH]1)N1CCC2(CCCN2CCF)CC1` [Example 255, 5-((1-(2-fluoroethyl)-1,8-diazaspiro[4.5]decan-8-yl)sulfonyl)-N-(1,2,3,5,6,7-hexahydro-s-indacen-4-yl)-4H-1,2,4-triazol-3-amine] registered an IC50 of no more than 1 µM.
`O=S(=O)(CC1CCCO1)c1nnc(Nc2c3c(cc4c2CCC4)CCC3)[nH]1` (centres unmarked) [Example 67, N-(1,2,3,5,6,7-hexahydro-s-indacen-4-yl)-3-(((tetrahydrofuran-2-yl)methyl)sulfonyl)-1H-1,2,4-triazol-5-amine]: the IC50 was no more than 10 µM.
As for `O=S(=O)(NCc1ccccn1)c1nnc(Nc2c3c(cc4c2CCC4)CCC3)[nH]1` [Example 98, 5-((1,2,3,5,6,7-hexahydro-s-indacen-4-yl)amino)-N-(pyridin-2-ylmethyl)-4H-1,2,4-triazole-3-sulfonamide], the IC50 is no more than 5 µM.
Regarding `CC(=O)NCCN(C)S(=O)(=O)c1nnc(Nc2c3c(cc4c2CCC4)CCC3)[nH]1` [Example 107, N-(2-(5-((1,2,3,5,6,7-hexahydro-s-indacen-4-yl)amino)-N-methyl-4H-1,2,4-triazole-3-sulfonamido)ethyl)acetamide], the IC50 is no more than 10 µM.
`O=S(=O)(c1nnc(Nc2c3c(cc4c2CCC4)CCC3)[nH]1)N1CC2(CCNC2)C1` [Example 265, 5-((2,6-diazaspiro[3.4]octan-2-yl)sulfonyl)-N-(1,2,3,5,6,7-hexahydro-s-indacen-4-yl)-4H-1,2,4-triazol-3-amine] had an IC50 of no more than 5 µM.
Molecule `CC(C)(O)CNS(=O)(=O)c1nnc(Nc2c3c(cc4c2CCC4)CCC3)[nH]1` [Example 272, 5-((1,2,3,5,6,7-hexahydro-s-indacen-4-yl)amino)-N-(2-hydroxy-2-methylpropyl)-4H-1,2,4-triazole-3-sulfonamide] had an IC50 of no more than 10 µM.
In turn, `O=S(=O)(NCc1ccccc1)c1nnc(Nc2c3c(cc4c2CCC4)CCC3)[nH]1` [Example 86, N-benzyl-5-((1,2,3,5,6,7-hexahydro-s-indacen-4-yl)amino)-4H-1,2,4-triazole-3-sulfonamide] displayed an IC50 of no more than 5 µM.
As to “(E)-1-(8-((5-((4-(dimethylamino)piperidin-1-yl)sulfonyl)-4H-1,2,4-triazol-3-yl)amino)-1,2,3,5,6,7-hexahydro-s-indacen-4-yl)ethan-1-one oxime and (Z)-1-(8-((5-((4-(dimethylamino)piperidin-1-yl)sulfonyl)-4H-1,2,4-triazol-3-yl)amino)-1,2,3,5,6,7-hexahydro-s-indacen-4-yl)ethan-1-one oxime [Example 309]”, the IC50 is no more than 5 µM.
In the case of `NC(=O)c1ccccc1S(=O)(=O)c1n[nH]c(Nc2c3c(cc4c2CCC4)CCC3)n1` [Example 311, 2-((5-((1,2,3,5,6,7-hexahydro-s-indacen-4-yl)amino)-1H-1,2,4-triazol-3-yl)sulfonyl)benzamide], the IC50 is no more than 5 µM.
For `O=S(=O)(c1cnn(CCO)c1)c1nnc(Nc2c3c(cc4c2CCC4)CCC3)[nH]1` [Example 335, 2-(4-((5-((1,2,3,5,6,7-hexahydro-s-indacen-4-yl)amino)-4H-1,2,4-triazol-3-yl)sulfonyl)-1H-pyrazol-1-yl)ethanol], the IC50 was no more than 5 µM.
As for `COCC1CCN(S(=O)(=O)c2nnc(Nc3c4c(cc5c3CCC5)CCC4)[nH]2)C1` (centres unmarked) [Example 283, N-(1,2,3,5,6,7-hexahydro-s-indacen-4-yl)-5-((3-(methoxymethyl)pyrrolidin-1-yl)sulfonyl)-4H-1,2,4-triazol-3-amine], the half-inhibitory concentration (IC50) is no more than 5 µM.
`CN1CCC(CN(C)CCCS(=O)(=O)c2nnc(Nc3c4c(cc5c3CCC5)CCC4)[nH]2)CC1` [Example 53, N-(1,2,3,5,6,7-hexahydro-s-indacen-4-yl)-5-((3-(methyl((1-methylpiperidin-4-yl)methyl)amino)propyl)sulfonyl)-4H-1,2,4-triazol-3-amine] displayed an IC50 of no more than 5 µM.
With `O=S(=O)(c1nnc(Nc2c3c(cc4c2CCC4)CCC3)[nH]1)N1CC(c2ccccn2)C1` [Example 285, N-(1,2,3,5,6,7-hexahydro-s-indacen-4-yl)-5-((3-(pyridin-2-yl)azetidin-1-yl)sulfonyl)-4H-1,2,4-triazol-3-amine], the IC50 is no more than 5 µM.
With `O=S(=O)(CCCO)c1nnc(Nc2c3c(cc4c2CCC4)CCC3)[nH]1` [Example 47, 3-((5-((1,2,3,5,6,7-hexahydro-s-indacen-4-yl)amino)-4H-1,2,4-triazol-3-yl)sulfonyl)propan-1-ol], the IC50 was no more than 5 µM.
As to `CN1C[C@H]2[C@@H]1CCN2S(=O)(=O)c1nnc(Nc2c3c(cc4c2CCC4)CCC3)[nH]1` [Example 269, N-(1,2,3,5,6,7-hexahydro-s-indacen-4-yl)-5-(((1S,5S)-6-methyl-2,6-diazabicyclo[3.2.0]heptan-2-yl)sulfonyl)-4H-1,2,4-triazol-3-amine], the IC50 is no more than 10 µM.
As to `CN(C)C1CCN(S(=O)(=O)c2nnc(Nc3c(-c4cnn(C)c4)ccc4c3CCC4)[nH]2)CC1` [Example 207, N,N-dimethyl-1-((5-((5-(1-methyl-1H-pyrazol-4-yl)-2,3-dihydro-1H-inden-4-yl)amino)-4H-1,2,4-triazol-3-yl)sulfonyl)piperidin-4-amine], the IC50 is no more than 5 µM.
`N#Cc1ccccc1S(=O)(=O)c1nnc(Nc2c3c(cc4c2CCC4)CCC3)[nH]1` [Example 185, 2-((5-((1,2,3,5,6,7-hexahydro-s-indacen-4-yl)amino)-4H-1,2,4-triazol-3-yl)sulfonyl)benzonitrile] displayed a half-maximal inhibitory concentration (IC50) of no more than 0.5 µM.
For `CC(c1cc(S(=O)(=O)c2nnc(Nc3c4c(cc5c3CCC5)CCC4)[nH]2)nn1C(C)C)N(C)C` (centres unmarked) [Example 8, 5-((5-(1-(dimethylamino)ethyl)-1-isopropyl-1H-pyrazol-3-yl)sulfonyl)-N-(1,2,3,5,6,7-hexahydro-s-indacen-4-yl)-4H-1,2,4-triazol-3-amine], the IC50 was no more than 1 µM.
As to `CS(=O)(=O)c1nnc(Nc2c(-c3ccnc(OC4CCOCC4)c3)ccc3c2CCC3)[nH]1` [Example 342, 5-(methylsulfonyl)-N-(5-(2-((tetrahydro-2H-pyran-4-yl)oxy)pyridin-4-yl)-2,3-dihydro-1H-inden-4-yl)-4H-1,2,4-triazol-3-amine], the IC50 is no more than 5 µM.
For `CN1CCCC1CS(=O)(=O)c1nnc(Nc2c3c(cc4c2CCC4)CCC3)[nH]1` (centres unmarked) [Example 61, N-(1,2,3,5,6,7-hexahydro-s-indacen-4-yl)-3-(((1-methylpyrrolidin-2-yl)methyl)sulfonyl)-1H-1,2,4-triazol-5-amine] the value was no more than 10 µM.
